ChEMBL document CHEMBL3885881, “DrugMatrix”

Species: Rattus norvegicus
Assay: DrugMatrix - Regimen: Daily Repeat
Assay type: toxicity, organism-based, Sprague-Dawley
Design: regimen Daily Repeat, gender Male, age 6-8 weeks
Settings: in vivo, po, route oral GAVAGE, vehicle .5 % CMC; for BASOPHIL / EOSINOPHIL / ERYTHROCYTE COUNT / HEMATOCRIT / HEMOGLOBIN / LEUKOCYTE COUNT / LYMPHOCYTE / MEAN CORPUSCULAR HEMOGLOBIN / MEAN CORPUSCULAR HEMOGLOBIN CONCENTRATION / MEAN CORPUSCULAR VOLUME / MONOCYTE / NEUTROPHIL / PLATELET COUNT: tissue Blood; for ALANINE AMINOTRANSFERASE / ALKALINE PHOSPHATASE / ASPARTATE AMINOTRANSFERASE / BLOOD UREA NITROGEN / CHLORIDE / CHOLESTEROL / CREATINE PHOSPHOKINASE / CREATININE / GLUCOSE / PHOSPHORUS / POTASSIUM / SODIUM / TOTAL PROTEIN: tissue Plasma
[1] = 0 mg/kg, 72 h, dose level Control, time 3 day
[2] = 0 mg/kg, 120 h, dose level Control, time 5 day
[3] = 30 mg/kg, 72 h, dose level Low, time 3 day
[4] = 30 mg/kg, 120 h, dose level Low, time 5 day

`CCN(CC)CCNC(=O)c1cc(Cl)c(N)cc1OC` [METOCLOPRAMIDE] was tested, and the BASOPHIL [1] was 0%, the EOSINOPHIL [1] was 0.4% and the “ERYTHROCYTE COUNT” value [1] was 6.43 x10E6/uL. For the same compound, the HEMATOCRIT [1] was 37.36%, the HEMOGLOBIN [1] was 13.98 G/DL and the “LEUKOCYTE COUNT” value [1] was 13 x10E3/uL. The LYMPHOCYTE [1] was 81.4%, the “MEAN CORPUSCULAR HEMOGLOBIN” value [1] was 21.9 pg and the “MEAN CORPUSCULAR HEMOGLOBIN CONCENTRATION” value [1] was 37.4 G/DL. The “MEAN CORPUSCULAR VOLUME” value [1] was 58.52 fL, the MONOCYTE [1] was 0.4% and the NEUTROPHIL [1] was 18%. The “PLATELET COUNT” value [1] was 1386 x10E3/uL, the “ALANINE AMINOTRANSFERASE” value [1] was 39.33 u/L and the “ALKALINE PHOSPHATASE” value [1] was 283.83 u/L. For the same compound, the “ASPARTATE AMINOTRANSFERASE” value [1] was 69.5 u/L, the “BLOOD UREA NITROGEN” value [1] was 14.83 mg/dL and the CHLORIDE [1] was 107.33 MEQ/L. The CHOLESTEROL [1] was 75.17 mg/dL, the “CREATINE PHOSPHOKINASE” value [1] was 107.67 u/L and the CREATININE [1] was 0.48 mg/dL. It also gave a GLUCOSE [1] of 172.5 mg/dL, a PHOSPHORUS [1] of 10.48 mg/dL and a POTASSIUM [1] of 6.9 MEQ/L. The SODIUM [1] was 152.33 MEQ/L, the “TOTAL PROTEIN” value [1] was 5.9 G/DL and the BASOPHIL [2] was 0%. The EOSINOPHIL [2] was 0.4%, the “ERYTHROCYTE COUNT” value [2] was 6.96 x10E6/uL and the HEMATOCRIT [2] was 41.12%. The HEMOGLOBIN [2] was 15.24 G/DL, the “LEUKOCYTE COUNT” value [2] was 11.06 x10E3/uL and the LYMPHOCYTE [2] was 88.6%. For the same compound, the “MEAN CORPUSCULAR HEMOGLOBIN” value [2] was 21.96 pg, the “MEAN CORPUSCULAR HEMOGLOBIN CONCENTRATION” value [2] was 37.1 G/DL and the “MEAN CORPUSCULAR VOLUME” value [2] was 59.12 fL. For the same compound, the MONOCYTE [2] was 0.2%, the NEUTROPHIL [2] was 10.8% and the “PLATELET COUNT” value [2] was 1155.8 x10E3/uL. For the same compound, the “ALANINE AMINOTRANSFERASE” value [2] was 36.33 u/L, the “ALKALINE PHOSPHATASE” value [2] was 340.33 u/L and the “ASPARTATE AMINOTRANSFERASE” value [2] was 68.33 u/L. The “BLOOD UREA NITROGEN” value [2] was 15 mg/dL, the CHLORIDE [2] was 108.17 MEQ/L and the CHOLESTEROL [2] was 74.67 mg/dL. For the same compound, the “CREATINE PHOSPHOKINASE” value [2] was 110.67 u/L, the CREATININE [2] was 0.47 mg/dL and the GLUCOSE [2] was 171.33 mg/dL. For the same compound, the PHOSPHORUS [2] was 10.05 mg/dL, the POTASSIUM [2] was 6.7 MEQ/L and the SODIUM [2] was 155.5 MEQ/L. The “TOTAL PROTEIN” value [2] was 6.33 G/DL, the BASOPHIL [3] was 0% and the EOSINOPHIL [3] was 0%. For the same compound, the “ERYTHROCYTE COUNT” value [3] was 6.75 x10E6/uL, the HEMATOCRIT [3] was 41.55% and the HEMOGLOBIN [3] was 15.45 G/DL. The “LEUKOCYTE COUNT” value [3] was 12.45 x10E3/uL, the LYMPHOCYTE [3] was 81% and the “MEAN CORPUSCULAR HEMOGLOBIN” value [3] was 22.95 pg. The “MEAN CORPUSCULAR VOLUME” value [3] was 61.7 fL, the MONOCYTE [3] was 0% and the NEUTROPHIL [3] was 19%. For the same compound, the “PLATELET COUNT” value [3] was 1187 x10E3/uL, the “ALANINE AMINOTRANSFERASE” value [3] was 40.67 u/L and the “ALKALINE PHOSPHATASE” value [3] was 299.33 u/L. The “ASPARTATE AMINOTRANSFERASE” value [3] was 95.67 u/L, the “BLOOD UREA NITROGEN” value [3] was 12.33 mg/dL and the CHLORIDE [3] was 107.33 MEQ/L. For the same compound, the CHOLESTEROL [3] was 78.67 mg/dL, the “CREATINE PHOSPHOKINASE” value [3] was 421.67 u/L and the CREATININE [3] was 0.77 mg/dL. The GLUCOSE [3] was 175.67 mg/dL, the PHOSPHORUS [3] was 11.53 mg/dL and the POTASSIUM [3] was 7.6 MEQ/L. For the same compound, the SODIUM [3] was 150.67 MEQ/L, the “TOTAL PROTEIN” value [3] was 6.13 G/DL and the BASOPHIL [4] was 0%. For the same compound, the EOSINOPHIL [4] was 0%, the “ERYTHROCYTE COUNT” value [4] was 7 x10E6/uL and the HEMATOCRIT [4] was 41.57%. For the same compound, the HEMOGLOBIN [4] was 15.33 G/DL, the “LEUKOCYTE COUNT” value [4] was 13.57 x10E3/uL and the LYMPHOCYTE [4] was 91%. The “MEAN CORPUSCULAR HEMOGLOBIN” value [4] was 21.93 pg, the “MEAN CORPUSCULAR HEMOGLOBIN CONCENTRATION” value [4] was 36.87 G/DL and the “MEAN CORPUSCULAR VOLUME” value [4] was 59.4 fL. For the same compound, the MONOCYTE [4] was 0.33%, the NEUTROPHIL [4] was 8.67% and the “PLATELET COUNT” value [4] was 1231.67 x10E3/uL. The “ALANINE AMINOTRANSFERASE” value [4] was 41 u/L, the “ALKALINE PHOSPHATASE” value [4] was 236.67 u/L and the “ASPARTATE AMINOTRANSFERASE” value [4] was 70.33 u/L. For the same compound, the “BLOOD UREA NITROGEN” value [4] was 14.67 mg/dL, the CHLORIDE [4] was 104.33 MEQ/L and the CHOLESTEROL [4] was 63.33 mg/dL. The “CREATINE PHOSPHOKINASE” value [4] was 157 u/L, the CREATININE [4] was 0.5 mg/dL and the GLUCOSE [4] was 156.33 mg/dL. For the same compound, the PHOSPHORUS [4] was 9.97 mg/dL, the POTASSIUM [4] was 6.37 MEQ/L and the SODIUM [4] was 151.67 MEQ/L. For the same compound, the “TOTAL PROTEIN” value [4] was 6.23 G/DL.
